Measurements published in PMC10938783, “A novel pan-PI3K inhibitor KTC1101 synergizes with anti-PD-1 therapy by targeting tumor suppression and immune activation” (Molecular Cancer, 2024).

Test system: B16 cells gene expression
Assay: RNA-Seq (DEGs, GSEA, heatmaps) of B16 cells
Conditions: KTC1101 0.2μM, B16 cells, GSEA KEGG

`COc1cc(N)cc2c1nc(C(F)F)n2-c1nc(N2CCCOCC2)nc(N2CCOCC2)n1` [KTC1101, 2-(difluoromethyl)-4-methoxy-1-(4-morpholino-6-(1,4-oxazepan-4-yl)-1,3,5-triazin-2-yl)-1H-benzo[d]imidazol-6-amine] was tested, and the “NES, mmu04970 Salivary secretion” value was 1.144, the “NES, mmu04972 Pancreatic secretion” value was 0.9417 and the “NES, mmu05017 Spinocerebellar ataxia” value was -1.093. For the same compound, the “NES, mmu05031 Amphetamine addiction” value was 1.031, the “NES, mmu05034 Alcoholism” value was 0.984 and the “NES, mmu05100 Bacterial invasion of epithelial cells” value was 0.6338. The “NES, mmu05132 Salmonella infection” value was -1.08, the “NES, mmu05133 Pertussis” value was 0.6182 and the “NES, mmu05134 Legionellosis” value was 1.026. The “NES, mmu05135 Yersinia infection” value was 0.5197, the “NES, mmu05145 Toxoplasmosis” value was 1.047 and the “NES, mmu05160 Hepatitis C” value was -0.848. The “NES, mmu05162 Measles” value was 1.0518, the “NES, mmu05165 Human papillomavirus infection” value was 0.8359 and the “NES, mmu05170 Human immunodeficiency virus 1 infection” value was 0.8557. The “NES, mmu05200 Pathways in cancer” value was 1.059, the “NES, mmu05203 Viral carcinogenesis” value was 0.855 and the “NES, mmu05204 Chemical carcinogenesis - DNA adducts” value was -1.166. The “NES, mmu05206 MicroRNAs in cancer” value was 1.025, the “NES, mmu05207 Chemical carcinogenesis - receptor activation” value was 0.9371 and the “NES, mmu05210 Colorectal cancer” value was 0.7382. The “NES, mmu05211 Renal cell carcinoma” value was -0.9675, the “NES, mmu05212 Pancreatic cancer” value was -0.9022 and the “NES, mmu05213 Endometrial cancer” value was -1.003. The “NES, mmu05214 Glioma” value was 0.9787, the “NES, mmu05216 Thyroid cancer” value was 0.6447 and the “NES, mmu05218 Melanoma” value was 1.185. For the same compound, the “NES, mmu05219 Bladder cancer” value was 0.8356, the “NES, mmu05220 Chronic myeloid leukemia” value was 0.9551 and the “NES, mmu05223 Non-small cell lung cancer” value was -0.8178. The “NES, mmu05231 Choline metabolism in cancer” value was 1.119, the “NES, mmu05235 PD-L1 expression and PD-1 checkpoint pathway in cancer” value was 0.9645 and the “NES, mmu05412 Arrhythmogenic right ventricular cardiomyopathy” value was 1.0322. For the same compound, the “NES, mmu05416 Viral myocarditis” value was 0.9628, the “NES, mmu05417 Lipid and atherosclerosis” value was 1.128 and the “enrichmentScore, mmu00071 Fatty acid degradation” value was 0.2512. The “enrichmentScore, mmu00310 Lysine degradation” value was -0.1985, the “enrichmentScore, mmu00380 Tryptophan metabolism” value was 0.4505 and the “enrichmentScore, mmu00500 Starch and sucrose metabolism” value was -0.3977. The “enrichmentScore, mmu00510 N-Glycan biosynthesis” value was -0.1868, the “enrichmentScore, mmu00513 Various types of N-glycan biosynthesis” value was 0.3555 and the “enrichmentScore, mmu00514 Other types of O-glycan biosynthesis” value was 0.426. The “enrichmentScore, mmu00562 Inositol phosphate metabolism” value was -0.271, the “enrichmentScore, mmu00564 Glycerophospholipid metabolism” value was -0.1904 and the “enrichmentScore, mmu00600 Sphingolipid metabolism” value was -0.2721. For the same compound, the “enrichmentScore, mmu00860 Porphyrin metabolism” value was -0.354, the “enrichmentScore, mmu00980 Metabolism of xenobiotics by cytochrome P450” value was -0.3932 and the “enrichmentScore, mmu00982 Drug metabolism - cytochrome P450” value was -0.394. For the same compound, the “enrichmentScore, mmu01250 Biosynthesis of nucleotide sugars” value was -0.3381, the “enrichmentScore, mmu01522 Endocrine resistance” value was 0.2781 and the “enrichmentScore, mmu01523 Antifolate resistance” value was -0.26. The “enrichmentScore, mmu02010 ABC transporters” value was -0.2376, the “enrichmentScore, mmu03008 Ribosome biogenesis in eukaryotes” value was 0.1194 and the “enrichmentScore, mmu03015 mRNA surveillance pathway” value was -0.1312. The “enrichmentScore, mmu03018 RNA degradation” value was -0.2392, the “enrichmentScore, mmu03022 Basal transcription factors” value was -0.1746 and the “enrichmentScore, mmu03040 Spliceosome” value was -0.1926. For the same compound, the “enrichmentScore, mmu03060 Protein export” value was -0.3667, the “enrichmentScore, mmu03082 ATP-dependent chromatin remodeling” value was 0.1455 and the “enrichmentScore, mmu03083 Polycomb repressive complex” value was 0.08375. For the same compound, the “enrichmentScore, mmu03250 Viral life cycle - HIV-1” value was -0.1606, the “enrichmentScore, mmu03410 Base excision repair” value was 0.1698 and the “enrichmentScore, mmu03420 Nucleotide excision repair” value was -0.1542. The “enrichmentScore, mmu03430 Mismatch repair” value was -0.1664, the “enrichmentScore, mmu03460 Fanconi anemia pathway” value was -0.2915 and the “enrichmentScore, mmu04014 Ras signaling pathway” value was -0.2302. For the same compound, the “enrichmentScore, mmu04068 FoxO signaling pathway” value was 0.2292, the “enrichmentScore, mmu04070 Phosphatidylinositol signaling system” value was -0.1821 and the “enrichmentScore, mmu04071 Sphingolipid signaling pathway” value was -0.1806. The “enrichmentScore, mmu04115 p53 signaling pathway” value was 0.2436, the “enrichmentScore, mmu04120 Ubiquitin mediated proteolysis” value was -0.1841 and the “enrichmentScore, mmu04130 SNARE interactions in vesicular transport” value was -0.1753. For the same compound, the “enrichmentScore, mmu04136 Autophagy - other” value was 0.2123, the “enrichmentScore, mmu04137 Mitophagy - animal” value was -0.2835 and the “enrichmentScore, mmu04140 Autophagy - animal” value was -0.2. For the same compound, the “enrichmentScore, mmu04144 Endocytosis” value was 0.1533, the “enrichmentScore, mmu04146 Peroxisome” value was 0.2695 and the “enrichmentScore, mmu04148 Efferocytosis” value was 0.2467. For the same compound, the “enrichmentScore, mmu04150 mTOR signaling pathway” value was -0.2361, the “enrichmentScore, mmu04152 AMPK signaling pathway” value was -0.2382 and the “enrichmentScore, mmu04210 Apoptosis” value was 0.1949.
